Test results as given in ChEMBL document CHEMBL1141766, “Isoprenylated naphthoquinone dimers firmianones A, B, and C from Firmiana platanifolia” (2005).

Tested on: P388
Experiment: Cytotoxicity against mouse P388 cells
Assay type: functional
Conditions: read-out: ED50 (the source's name)

| SMILES | EC50 [µM] |
| --- | --- |
| CC1=C[C@@H]2c3c(c(O)c4ccccc4c3O[C@@H]3O[C@H](CO)[C@@H](O)[C@H](O)[C@H]3O)[C@@]3(O)c4ccccc4C(=O)[C@]2(/C=C/C(C)(C)O)[C@@]3(O)C1 [FIRMIANONE A] | 6.5 |
| CC1=C[C@@H]2c3c(c(O)c4ccccc4c3O[C@@H]3O[C@H](CO)[C@@H](O)[C@H](O)[C@H]3O)[C@@]3(O)c4cccc(O)c4C(=O)[C@]2(/C=C/C(C)(C)O)[C@@]3(O)C1 [FIRMIANONE B] | 8.1 |
